# Reference: ChEMBL document CHEMBL4414553, “Imidazopyridine-based selective and multifunctional ligands of biological targets associated with psychiatric and neurodegenerative diseases” (Eur J Med Chem, 2019)
# Columns and labels:
# [1] = Inhibition of CBR (unknown origin); parameters: species or system Homo sapiens
# Translocator protein = Translocator protein (Homo sapiens, UniProt P30536); assay: Inhibition of TSPO (unknown origin)
# [2] = Lipophilicity, log D of the compound; assay type: physicochemical; conditions: octanol/water
# [3] = Partition coefficient, log P of the compound; assay type: physicochemical; conditions: octanol/water
# [4] = biological target: cAMP and cAMP-inhibited cGMP 3',5'-cyclic phosphodiesterase 10A (Homo sapiens, UniProt Q9Y233); assay: Inhibition of human PDE10
# [5] = biological target: Glycogen synthase kinase-3 (Homo sapiens, UniProt P49840+P49841); assay: Inhibition of GSK3 (unknown origin); assay type: protein assay
# [6] = biological target: T1, Sodium- and chloride-dependent glycine transporter 1 (Homo sapiens, UniProt P48067); assay: Inhibition of GlyT1 (unknown origin)
# T1 sequence (P48067 whole entry): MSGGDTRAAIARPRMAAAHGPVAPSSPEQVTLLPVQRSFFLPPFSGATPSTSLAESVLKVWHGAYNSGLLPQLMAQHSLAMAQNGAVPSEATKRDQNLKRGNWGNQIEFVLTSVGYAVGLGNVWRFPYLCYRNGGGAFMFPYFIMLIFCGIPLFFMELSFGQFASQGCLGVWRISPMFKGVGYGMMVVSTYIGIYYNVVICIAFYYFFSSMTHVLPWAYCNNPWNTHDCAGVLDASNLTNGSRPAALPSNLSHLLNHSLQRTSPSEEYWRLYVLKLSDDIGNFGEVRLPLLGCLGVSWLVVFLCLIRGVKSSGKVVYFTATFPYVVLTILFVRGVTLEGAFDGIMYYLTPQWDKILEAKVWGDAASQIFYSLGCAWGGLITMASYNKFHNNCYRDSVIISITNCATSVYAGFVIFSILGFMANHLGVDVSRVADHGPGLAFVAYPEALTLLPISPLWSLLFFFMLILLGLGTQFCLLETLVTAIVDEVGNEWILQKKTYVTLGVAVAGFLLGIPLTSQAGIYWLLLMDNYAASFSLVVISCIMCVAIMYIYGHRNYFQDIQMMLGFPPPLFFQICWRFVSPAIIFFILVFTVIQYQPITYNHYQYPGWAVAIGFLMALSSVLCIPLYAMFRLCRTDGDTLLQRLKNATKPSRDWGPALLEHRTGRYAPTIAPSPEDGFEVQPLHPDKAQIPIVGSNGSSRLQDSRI
# Mus musculus [7] = assay: Inhibition of DYRK1A in mouse at 3 mg/kg relative to control; assay type: functional
# [8] = Inhibition of MARK (unknown origin); parameters: species or system Homo sapiens
# [9] = biological target: T2, Fatty-acid amide hydrolase 1 (Homo sapiens, UniProt O00519); assay: Inhibition of FAAH (unknown origin)
# T2 sequence (O00519 whole entry): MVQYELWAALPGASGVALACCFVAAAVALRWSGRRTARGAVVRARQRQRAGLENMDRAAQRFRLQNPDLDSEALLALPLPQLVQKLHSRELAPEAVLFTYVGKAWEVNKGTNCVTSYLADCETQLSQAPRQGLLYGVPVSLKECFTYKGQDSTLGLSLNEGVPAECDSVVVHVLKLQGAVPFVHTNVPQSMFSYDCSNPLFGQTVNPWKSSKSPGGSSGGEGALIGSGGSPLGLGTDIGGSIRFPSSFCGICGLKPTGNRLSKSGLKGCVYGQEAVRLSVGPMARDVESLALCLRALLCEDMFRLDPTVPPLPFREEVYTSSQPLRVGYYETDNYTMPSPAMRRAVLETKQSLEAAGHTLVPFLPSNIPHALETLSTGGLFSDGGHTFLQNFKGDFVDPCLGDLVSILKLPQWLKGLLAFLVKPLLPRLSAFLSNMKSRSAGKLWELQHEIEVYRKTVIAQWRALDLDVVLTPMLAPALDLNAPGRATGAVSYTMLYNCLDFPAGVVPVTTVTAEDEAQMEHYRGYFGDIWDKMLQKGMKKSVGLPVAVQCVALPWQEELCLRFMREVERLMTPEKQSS
# [10] = biological target: T3, 5-hydroxytryptamine receptor 4 (Homo sapiens, UniProt Q13639); assay: Antagonist activity at 5-HT4 receptor (unknown origin)
# Mus musculus [11] = assay: Inhibition of DYRK1A in mouse at 9 mg/kg relative to control; assay type: functional
# [12] = biological target: Dual specificity tyrosine-phosphorylation-regulated kinase 1A (Homo sapiens, UniProt Q13627); assay: Inhibition of DYRK1A (unknown origin) by TR-FRET assay
# [13] = biological target: T3, 5-hydroxytryptamine receptor 4; assay: Inhibition of 5-HT4 receptor (unknown origin)
# [14] = biological target: T4, 5-hydroxytryptamine receptor 3A (Homo sapiens, UniProt P46098); assay: Antagonist activity at 5-HT3 receptor (unknown origin)
# T4 sequence (P46098 whole entry): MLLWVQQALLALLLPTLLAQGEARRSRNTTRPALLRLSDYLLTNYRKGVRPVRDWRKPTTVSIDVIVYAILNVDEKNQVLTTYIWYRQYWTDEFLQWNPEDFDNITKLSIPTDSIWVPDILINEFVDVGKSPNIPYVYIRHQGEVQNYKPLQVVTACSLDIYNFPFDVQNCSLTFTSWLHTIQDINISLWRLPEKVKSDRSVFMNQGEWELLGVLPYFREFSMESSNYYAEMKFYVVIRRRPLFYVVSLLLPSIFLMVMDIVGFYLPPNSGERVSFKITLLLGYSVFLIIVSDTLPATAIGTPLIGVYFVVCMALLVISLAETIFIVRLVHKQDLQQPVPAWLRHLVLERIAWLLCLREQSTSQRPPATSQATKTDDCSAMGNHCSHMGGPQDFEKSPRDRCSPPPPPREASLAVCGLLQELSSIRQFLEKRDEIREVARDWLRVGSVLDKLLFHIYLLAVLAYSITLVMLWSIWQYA
# Histamine H3 receptor = Histamine H3 receptor (Cavia porcellus, UniProt Q9JI35); assay: Inhibition of Guinea Pig Ileum H3R
# [15] = biological target: Glutamate [NMDA] receptor; assay: Modulator activity at NMDA receptor (unknown origin); assay type: protein-complex assay, Homo sapiens
# Adenosine receptor A1 = biological target: T5, Adenosine receptor A1 (Homo sapiens, UniProt P30542); assay: Inhibition of human A1 receptor
# T5 sequence (P30542 whole entry): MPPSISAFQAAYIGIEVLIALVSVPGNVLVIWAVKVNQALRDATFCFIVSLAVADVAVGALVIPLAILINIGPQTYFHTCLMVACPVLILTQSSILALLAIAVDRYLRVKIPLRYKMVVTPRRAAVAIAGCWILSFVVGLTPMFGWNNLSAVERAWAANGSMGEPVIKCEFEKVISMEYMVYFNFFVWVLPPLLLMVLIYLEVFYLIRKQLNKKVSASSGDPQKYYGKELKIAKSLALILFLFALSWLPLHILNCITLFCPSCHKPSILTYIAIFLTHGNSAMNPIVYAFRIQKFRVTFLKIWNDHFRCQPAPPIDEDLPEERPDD
# Adenosine A2 receptor = Adenosine A2 receptor (Homo sapiens, UniProt P29275+P29274); assay: Inhibition of GFP-tagged human A2 receptor expressed in HEK cells by FRET-binding assay; assay type: cell-based
# D(4) dopamine receptor = biological target: T6, D(4) dopamine receptor (Homo sapiens, UniProt P21917); assay: Agonist activity at dopamine D4 receptor (unknown origin)
# T6 sequence (P21917 whole entry): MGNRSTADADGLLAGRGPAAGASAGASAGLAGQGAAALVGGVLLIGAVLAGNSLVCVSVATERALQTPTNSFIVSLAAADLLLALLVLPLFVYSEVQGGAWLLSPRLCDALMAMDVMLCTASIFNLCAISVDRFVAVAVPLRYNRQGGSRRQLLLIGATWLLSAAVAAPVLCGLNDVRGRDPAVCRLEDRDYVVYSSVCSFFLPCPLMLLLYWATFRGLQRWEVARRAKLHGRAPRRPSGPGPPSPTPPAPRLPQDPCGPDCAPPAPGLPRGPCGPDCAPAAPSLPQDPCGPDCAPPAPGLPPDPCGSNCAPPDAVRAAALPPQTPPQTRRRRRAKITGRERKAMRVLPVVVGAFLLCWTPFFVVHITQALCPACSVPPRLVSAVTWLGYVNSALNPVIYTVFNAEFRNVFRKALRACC
# T3 sequence (Q13639 whole entry): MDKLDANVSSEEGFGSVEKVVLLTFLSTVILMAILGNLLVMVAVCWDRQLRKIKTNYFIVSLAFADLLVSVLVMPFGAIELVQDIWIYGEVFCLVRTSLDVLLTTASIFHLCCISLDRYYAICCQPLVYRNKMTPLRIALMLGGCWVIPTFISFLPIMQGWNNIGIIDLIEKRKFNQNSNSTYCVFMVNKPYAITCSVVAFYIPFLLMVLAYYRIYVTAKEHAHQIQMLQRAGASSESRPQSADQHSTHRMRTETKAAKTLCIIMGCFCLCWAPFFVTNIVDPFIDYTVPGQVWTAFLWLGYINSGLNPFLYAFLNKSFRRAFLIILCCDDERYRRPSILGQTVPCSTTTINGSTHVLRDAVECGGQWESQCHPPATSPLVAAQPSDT
# Sequence of Translocator protein (P30536 whole entry): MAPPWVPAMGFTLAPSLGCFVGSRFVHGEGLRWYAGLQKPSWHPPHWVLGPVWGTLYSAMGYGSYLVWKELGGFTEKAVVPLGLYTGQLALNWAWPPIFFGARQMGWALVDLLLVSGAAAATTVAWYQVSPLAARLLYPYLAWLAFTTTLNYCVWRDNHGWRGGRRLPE
# Sequence of Histamine H3 receptor (Q9JI35 whole entry): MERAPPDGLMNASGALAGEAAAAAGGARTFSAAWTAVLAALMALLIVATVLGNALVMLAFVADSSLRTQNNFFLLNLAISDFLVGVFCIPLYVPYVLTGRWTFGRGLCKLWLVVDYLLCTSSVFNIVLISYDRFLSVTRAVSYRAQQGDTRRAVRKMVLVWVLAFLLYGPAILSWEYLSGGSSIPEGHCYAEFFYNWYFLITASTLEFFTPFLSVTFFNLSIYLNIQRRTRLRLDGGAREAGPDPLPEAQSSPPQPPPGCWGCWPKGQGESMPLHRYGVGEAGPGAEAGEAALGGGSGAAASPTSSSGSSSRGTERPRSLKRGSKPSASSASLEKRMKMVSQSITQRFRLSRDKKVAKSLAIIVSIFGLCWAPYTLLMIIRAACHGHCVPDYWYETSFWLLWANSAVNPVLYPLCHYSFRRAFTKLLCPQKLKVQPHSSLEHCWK
# Sequence of cAMP and cAMP-inhibited cGMP 3',5'-cyclic phosphodiesterase 10A (Q9Y233 whole entry): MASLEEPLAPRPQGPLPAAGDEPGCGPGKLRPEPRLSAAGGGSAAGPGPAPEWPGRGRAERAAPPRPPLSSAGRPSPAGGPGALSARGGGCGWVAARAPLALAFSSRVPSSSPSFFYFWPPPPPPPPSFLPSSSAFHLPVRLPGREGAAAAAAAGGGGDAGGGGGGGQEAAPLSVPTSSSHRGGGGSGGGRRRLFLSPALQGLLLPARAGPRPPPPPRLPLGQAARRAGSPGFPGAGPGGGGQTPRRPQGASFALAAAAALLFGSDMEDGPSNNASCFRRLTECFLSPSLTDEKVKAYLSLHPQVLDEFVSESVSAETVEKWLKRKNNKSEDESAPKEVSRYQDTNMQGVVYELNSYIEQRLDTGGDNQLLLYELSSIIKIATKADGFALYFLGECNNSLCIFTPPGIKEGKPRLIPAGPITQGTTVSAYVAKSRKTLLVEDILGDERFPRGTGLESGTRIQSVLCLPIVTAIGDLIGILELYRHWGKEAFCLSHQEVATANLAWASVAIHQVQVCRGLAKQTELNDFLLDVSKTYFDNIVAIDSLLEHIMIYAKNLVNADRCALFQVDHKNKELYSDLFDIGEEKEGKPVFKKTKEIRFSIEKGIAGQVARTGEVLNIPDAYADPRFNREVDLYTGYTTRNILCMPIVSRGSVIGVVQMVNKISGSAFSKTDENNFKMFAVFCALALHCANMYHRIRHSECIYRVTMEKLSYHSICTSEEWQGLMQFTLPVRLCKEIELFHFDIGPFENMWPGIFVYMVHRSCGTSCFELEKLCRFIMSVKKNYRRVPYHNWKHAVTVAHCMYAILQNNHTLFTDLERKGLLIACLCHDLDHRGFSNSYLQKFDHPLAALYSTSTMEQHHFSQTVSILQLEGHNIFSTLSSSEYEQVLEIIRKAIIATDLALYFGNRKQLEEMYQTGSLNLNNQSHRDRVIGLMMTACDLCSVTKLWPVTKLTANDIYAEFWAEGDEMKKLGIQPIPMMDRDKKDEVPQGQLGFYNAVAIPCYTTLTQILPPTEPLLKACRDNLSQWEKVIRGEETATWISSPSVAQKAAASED
structure (smiles),measurement,setting,value
CCCN(CCC)C(=O)Cc1c(-c2ccc(Cl)cc2)[nH]c2ccc(Cl)cc12,IC50,[1],> 1000 nM
same,Ki,Translocator protein,3.9 nM
Cn1cnc2cnccc21,logD,[2]; read-out: logD,0.26
same,logP,[3]; read-out: logP,0.27
Cc1nc(C2CC2c2nc3ccccn3c2C)cc(-n2nc(C)nc2C)n1 (stereo not given),Ki,[4],2.1 nM
CCCN(CCC)C(=O)Cc1c(-c2ccc(Cl)cc2)nc2c(CC(=O)CCCCC(=O)Nc3ccn([C@@H]4O[C@H](CO)[C@@H](O)[C@@H]4O)c(=O)n3)cccn12,IC50,Translocator protein,2.13 nM
CCCN(CCC)C(=O)Cn1c(-c2ccc(Cl)cc2)nc2cccnc21,IC50,[1],380 nM
CCCN(CCC)C(=O)Cc1c(-c2ccc(Cl)cc2)nc2c(NC(=O)CCC(=O)OCC)cccn12,Ki,Translocator protein,0.86 nM
COc1ccc(-c2ccnc3[nH]c(-c4ccc(C(=O)N5CCCCC5)cc4)nc23)cc1,IC50,[5],31 nM
O=C(NCCCn1ccnc1)c1ccnc2[nH]c(-c3ccc(C(F)(F)F)cc3)nc12,IC50,[5],13 nM
CCOCCn1c(CN2CCN(CCCC(c3ccc(F)cc3)c3ccc(F)cc3)CC2)nc2cccnc21,IC50,[6],155 nM
CCCN(CCC)C(=O)Cc1c(-c2ccccc2)nc2ccc([N+](=O)[O-])cn12,IC50,[1],2740 nM
same,IC50,Translocator protein,11.8 nM
CCCN(CCC)C(=O)Cc1c(-c2ccc([N+](=O)[O-])cc2)nc2c(Cl)cc(Cl)cn12,Ki,Translocator protein,0.15 nM
Cc1nc2ccc(-c3cc(N)nc(N)c3)nc2n1C1CC1,inhibition in vivo at 3 mg/kg,Mus musculus [7],44%
N[C@H]1CCCC(F)(F)[C@@H]1NC(=O)c1nc(-c2cnc3ccccn23)c(Cl)s1,IC50,[8],720 nM
CCC/C=C/COCC(=O)Nc1cccc(-c2nc3ncccc3o2)c1,IC50,[9],17000 nM
Cn1cnc2cccnc21,logD,[2]; read-out: logD,0.63
same,logP,[3]; read-out: logP,0.63
CCCCN1CCC(CNC(=O)c2cc(Cl)cn3ccnc23)CC1,IC50,[10],< 10 nM
Cc1nc2ccc(-c3cc(N)nc(N)c3)nc2n1C[C@@H](C)Oc1ccccc1,inhibition in vivo at 9 mg/kg,Mus musculus [11],46%
same,IC50,[12],8 nM
c1ccn2cncc2c1,logD,[2]; read-out: logD,0.17
same,logP,[3]; read-out: logP,0.41
c1cnc2[nH]cnc2c1,logD,[2]; read-out: logD,0.41
same,logP,[3]; read-out: logP,0.41
CCN1C(=O)N(C(=O)NC2CC3CCC(C2)N3C)C2C=CC=CC21 (stereo not given),EC50,[13],360 nM
Cc1cn2c(N)c(Cl)cc(C(=O)NCC3CCNCC3)c2n1,Ki,[14],26 nM
Cn1nc(N2CCC(OC(=O)N3CCN(C4CCC4)CC3)CC2)ccc1=O [LML-134],Ki,Histamine H3 receptor,12 nM
Cc1nc2ccc(-c3cc(N)nc(N)c3)nc2n1C(C)C,inhibition in vivo at 3 mg/kg,Mus musculus [7],49%
CCCN(CCC)C(=O)Cc1c(-c2ccc(Cl)cc2)nc2ccc(Cl)cn12 [ALPIDEM],IC50,[1],26 nM
same,IC50,Translocator protein,7.9 nM
same,Ki,Translocator protein,0.5 to 7 nM
c1ccn2ccnc2c1,logD,[2],0.73
same,logP,[3],0.41
O=C(COc1ccc(-c2ccccc2)cc1)Nc1cccc(-c2nc3cccnc3[nH]2)c1,IC50,[9],13000 nM
CCCCN(C)C(=O)Cc1c(-c2ccc(OC)cc2)nc2c(Cl)cc(Cl)cn12,IC50,[1],> 10000 nM
same,Ki,Translocator protein,0.882 nM
N[C@H]1CCCC(F)(F)[C@@H]1NC(=O)c1cc(-c2cnc3ccccn23)cs1,IC50,[8],15 nM
Cc1ccc2c(c1)C1CN(C)CCC1N2CCC(=O)N(C)c1c(C(F)(F)F)nc2ccc(C)cn12 (stereo not given),IC50,[15],33000 nM
CCCN(CCC)C(=O)Cc1c(-c2ccc(Cl)cc2)nc2c(Cl)cc(Cl)cn12 [ALPDEM],Ki,Translocator protein,0.41 nM
CCCN(CCC)C(=O)Cc1c(-c2ccc(Cl)cc2)nc2c(NC(=O)CN(Cc3ccccn3)Cc3ccccn3)cccn12,Ki,Translocator protein,293 nM
c1cc2[nH]cnc2cn1,logD,[2]; read-out: logD,0.03
same,logP,[3]; read-out: logP,0.04
CC(C)N1C(=O)N(C(=O)NC2CC3CCC(C2)N3C)C2C=CC=CC21 (stereo not given),EC50,[13],72 nM
O=C(COc1ccc(-c2ccccc2)cc1)Nc1cccc(-c2nc3ncccc3o2)c1,IC50,[9],630 nM
CCCN(CCC)C(=O)Cc1c(-c2ccc(OC)cc2)nc2c(Cl)cc(Cl)cn12,IC50,[1],> 10000 nM
same,Ki,Translocator protein,0.537 nM
O=S(=O)(NCCCn1ccnc1)c1ccnc2[nH]c(-c3ccc(C(F)(F)F)cc3)nc12,IC50,[5],1600 nM
CCSc1ccncc1NC(=O)c1ccnc2[nH]c(-c3ccc(N4CCCC4)cc3)nc12,IC50,[5],3 nM
Cc1ccc2c(c1)C1CC(C)CCC1N2c1c(C(F)(F)F)nc2c(C)cccn12 (stereo not given),IC50,[15],40000 nM
Cc1ccc(-c2nc3ccccn3c2NC2CCCCC2)cc1,Ki,Adenosine receptor A1,2060 nM
same,Ki,Adenosine A2 receptor,> 100000 nM
CCCN(CCC)C(=O)Cc1c(-c2ccc(Cl)cc2)nc2c(N)cccn12,Ki,Translocator protein,1.6 nM
O=C(NC1CN2CCC1CC2)c1cc(Cl)cn2ccnc12 (stereo not given),IC50,[14],17.5 nM
same,Ki,[14],12 nM
Fc1ccc(C(CCCN2CCC(Cc3nc4cccnc4n3Cc3cccs3)CC2)c2ccc(F)cc2)cc1,IC50,[6],549 nM
O=C1NC2CCCCN2C12CCN(CCCN1c3ccccc3CCc3ccc(Cl)cc31)CC2 (stereo not given) [MOSAPRAMINE],Ki,D(4) dopamine receptor,0.03 nM
Clc1ccc(N2CCN(Cc3cn4ccccc4n3)CC2)cc1Cl,Ki,D(4) dopamine receptor,0.99 nM
CCC/C=C/COCC(=O)Nc1cccc(-c2nc3cccnc3[nH]2)c1,IC50,[9],73000 nM
